Laboratory results taken from ChEMBL document CHEMBL1131346, “A free energy calculation can be used to predict K(+)-binding constants for new macrotetrolide antibiotics” (Bioorg Med Chem Lett, 1998).

Assay: Compound was evaluated for K+ ion binding affinity to macrocycle of macrotetrolides

**Q.** For CC[C@H]1C[C@@H]2CC[C@@H](O2)[C@@H](C)C(=O)O[C@H](C)C[C@H]2CC[C@H](O2)[C@H](C)C(=O)O[C@@H](C)C[C@@H]2CC[C@@H](O2)[C@@H](C)C(=O)O[C@H](C)C[C@H]2CC[C@H](O2)[C@H](C)C(=O)O1, which Log K is on record?
**A.** 4.4

**Q.** Which Log K does the source give for CC[C@H]1C[C@@H]2CC[C@@H](O2)[C@@H](C)C(=O)O[C@H](C)C[C@H]2CC[C@H](O2)[C@H](C)C(=O)O[C@@H](CC)C[C@@H]2CC[C@@H](O2)[C@@H](C)C(=O)O[C@H](C)C[C@H]2CC[C@H](O2)[C@H](C)C(=O)O1 here?
**A.** 4.73

**Q.** For C[C@@H]1C[C@H]2CC[C@H](O2)[C@H](C)C(=O)O[C@@H](C)C[C@@H]2CC[C@@H](O2)[C@@H](C)C(=O)O[C@H](C)C[C@H]2CC[C@@H](O2)[C@H](C)C(=O)O[C@@H](C)C[C@@H]2CC[C@@H](O2)[C@@H](C)C(=O)O1, which Log K is on record?
**A.** 3.88
